Tests used:
hOX1R = test: ß-lactamase EFC assay of ß-arrestin recruitment, OX1R reporter cells; format: cell-based, human; conditions: 14 h ligand incubation, CCF4/AM substrate
Method: CHO cells stably expressing both the GPCR-omega chimera and ß-arrestin 2-alpha chimera were plated either in 6 well plates or in 96 well plates. After 24 h, ligands or HPLC fractions were added to the wells, and incubated for 14 h. After incubation, cells were washed once in HBSS and then incubated with CCF4/AM substrate for 2 h. ß-lactamase activity was measured either by FACS or with a plate reader (Victor V: Perkin Elmer).

hNMBR = target: T1, hNMBR (Homo sapiens, UniProt P28336); test: NFAT-luciferase reporter assay in CHO cells expressing hNMBR; format: cell-based; conditions: 6 h incubation, read-out: EC50, activation of NFAT-promotor
T1 construct: expressed in transfected cells; host or cells: CHO cells stably expressing hNMBR
T1 sequence (P28336 whole entry): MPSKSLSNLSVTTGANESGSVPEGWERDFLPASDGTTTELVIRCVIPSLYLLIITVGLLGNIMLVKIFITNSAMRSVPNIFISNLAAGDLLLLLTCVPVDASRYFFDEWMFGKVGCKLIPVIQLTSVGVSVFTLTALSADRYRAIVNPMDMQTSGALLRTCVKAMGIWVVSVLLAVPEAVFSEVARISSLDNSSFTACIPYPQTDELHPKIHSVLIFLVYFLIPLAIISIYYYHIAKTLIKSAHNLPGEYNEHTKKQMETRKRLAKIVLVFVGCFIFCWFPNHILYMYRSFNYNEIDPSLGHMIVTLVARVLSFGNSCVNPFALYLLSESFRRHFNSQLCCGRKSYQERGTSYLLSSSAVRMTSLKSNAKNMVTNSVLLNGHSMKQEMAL
Method: CHO cells stably expressing the GPCR of interest were transiently transfected with NFAT-TA-Luc plasmid (Clontech). Cells were then left overnight before being plated in 96 well plates (20000 cells/well). After an additional 24 h, the synthetic ligands were added to the wells and incubated for 6 h. Following incubation, firefly luciferase assays were performed using the Steady-Glo Luciferase Assay System (Promega). Luminescence was detected with a plate reader (Victor V: Perkin Elmer), according to the manufacturer’s instructions. EC50 values were calculated using Workout 2.0 Data Analysis Software (Perkin Elmer).

Compound: orexin-A (QPLPDCCRQKTCSCRLYELLHGAGNHAAGILTL) [unrelated peptide; ligand of orexin type 1 receptor, used as control]
- Response in ß-lactamase EFC assay (ß-arrestin recruitment to OX1R) (hOX1R): responded specifically to orexin-A

Compound: CSCC[C@H](NC(=O)[C@H](Cc1ccccc1)NC(=O)[C@H](Cc1cnc[nH]1)NC(=O)CNC(=O)[C@@H](NC(=O)[C@H](C)NC(=O)[C@H](Cc1c[nH]c2ccccc12)NC(=O)[C@H](CC(C)C)NC(=O)[C@H](CC(N)=O)NC(=O)CN)[C@@H](C)O)C(N)=O [NMB, neuromedin B]
- EC50 (hNMBR): 0.16 nM

From paper PMC4452343, “Monitoring β-arrestin recruitment via β-lactamase enzyme fragment complementation: purification of peptide E as a low-affinity ligand for mammalian bombesin receptors” (PLoS ONE, 2015)
